Test results published in patent publication US7067531B2, “Farnesyl transferase inhibiting 6-heterocyclylmethyl quinolinone derivatives” (priority 2000, dated 2006).

| melting point | Structure (SMILES) |
| --- | --- |
| 149 °C | O=C(O)C(=O)O.O=c1[nH]c2ccc(C(c3nc(-c4ccccc4)cs3)n3ccnc3-c3ccccc3)cc2c(-c2cccc(Cl)c2)c1CO (centres unmarked) |
| 246 °C | Cn1cncc1C(O)(c1ccc2c(c1)c(-c1cccc(Cl)c1)cc(=O)n2C)c1nccs1 (racemic) [Example B3 F2, (±)-4-(3-chlorophenyl)-6-[hydroxy(1-methyl-1H-imidazol-5-yl)-2-thiazolylmethyl]-1-methyl-2(1H)-quinolinone] |
| 248 °C | Cn1cncc1C(O)(c1ccoc1)c1ccc2c(c1)c(-c1cccc(Cl)c1)cc(=O)n2C (racemic) [Example B6, (±)-4-(3-chlorophenyl)-6-[3-furanylhydroxy(1-methyl-1H-imidazol-5-yl)methyl]-1-methyl-2(1H)-quinolinone] |
| 197 °C | Cn1cncc1C(N)(c1ccoc1)c1ccc2c(c1)c(-c1cccc(Cl)c1)cc(=O)n2C (racemic) [Example B8, (±)-6-[amino-3-furanyl(1-methyl-1H-imidazol-5-yl)methyl]-4-(3-chlorophenyl)-1-methyl-2(1H)-quinolinone] |
| 130 °C | Cn1cncc1C(O)(c1ccc2c(c1)c(-c1cccc(Cl)c1)cc(=O)n2C)c1nccn1C (centres unmarked) [Example B7, 4-(3-chlorophenyl)-6-[hydroxy(1-methyl-1H-imidazol-2-yl)(1-methyl-1H-imidazol-5-yl)methyl]-1-methyl-2(1H)-quinolinone] |
